Assay results published in ChEMBL document CHEMBL1275577, “Study of the in vitro activities of rifaximin and comparator agents against 536 anaerobic intestinal bacteria from the perspective of potential utility in pathology involving bowel flora” (Antimicrob Agents Chemother, 2009).
≈ marks a conversion by molar mass, not a printed value.

Assays:
[1] = tested on: Blautia luti; test: Antimicrobial activity against Ruminococcus luti by Wadsworth agar dilution method in presence of beta-lactamase inhibitor Sulbactam; type: functional
[2] = tested on: Clostridium acetobutylicum; test: Antimicrobial activity against Clostridium acetobutylicum by Wadsworth agar dilution method in presence of beta-lactamase inhibitor Sulbactam; type: functional
[3] = tested on: Porphyromonas uenonis; test: Antimicrobial activity against Porphyromonas uenonis by Wadsworth agar dilution method in presence of beta-lactamase inhibitor Sulbactam; type: functional
[4] = tested on: Bacteroides thetaiotaomicron; test: Antimicrobial activity against Bacteroides thetaiotaomicron by Wadsworth agar dilution method in presence of beta-lactamase inhibitor Sulbactam; type: functional
[5] = tested on: Fusobacterium mortiferum; test: Antimicrobial activity against Clostridium rectum by Wadsworth agar dilution method in presence of beta-lactamase inhibitor Sulbactam; type: functional
[6] = tested on: Fusobacterium varium; test: Antimicrobial activity against Fusobacterium varium by Wadsworth agar dilution method in presence of beta-lactamase inhibitor Sulbactam; type: functional
[7] = tested on: Bacteroides nordii; test: Antimicrobial activity against Bacteroides nordii by Wadsworth agar dilution method in presence of beta-lactamase inhibitor Sulbactam; type: functional
[8] = tested on: Fusobacterium mortiferum; test: Antimicrobial activity against Fusobacterium mortiferum by Wadsworth agar dilution method; type: functional
[9] = Antimicrobial activity against Bifidobacterium infantis by Wadsworth agar dilution method in presence of beta-lactamase inhibitor Sulbactam; type: functional, Bifidobacterium longum subsp. infantis; conditions: Bifidobacterium longum
[10] = tested on: Eubacterium biforme; test: Antimicrobial activity against Eubacterium biforme by Wadsworth agar dilution method in presence of beta-lactamase inhibitor Sulbactam; type: functional; conditions: Holdemanella biformis
[11] = tested on: Clostridium symbiosum; test: Antimicrobial activity against Clostridium symbiosum by Wadsworth agar dilution method in presence of beta-lactamase inhibitor Sulbactam; type: functional
[12] = tested on: Enterocloster clostridioformis; test: Antimicrobial activity against Clostridium clostridioforme by Wadsworth agar dilution method in presence of beta-lactamase inhibitor Sulbactam; type: functional
[13] = tested on: Eubacterium callanderi; test: Antimicrobial activity against Eubacterium callanderi by Wadsworth agar dilution method in presence of beta-lactamase inhibitor Sulbactam; type: functional
[14] = tested on: Prevotella melaninogenica; test: Antimicrobial activity against Prevotella melaninogenica by Wadsworth agar dilution method in presence of beta-lactamase inhibitor Sulbactam; type: functional
[15] = tested on: Thomasclavelia ramosa; test: Antimicrobial activity against Clostridium ramosum by Wadsworth agar dilution method in presence of beta-lactamase inhibitor Sulbactam; type: functional
[16] = tested on: Lacticaseibacillus rhamnosus; test: Antimicrobial activity against Lactobacillus rhamnosus by Wadsworth agar dilution method in presence of beta-lactamase inhibitor Sulbactam; type: functional
[17] = tested on: Ruminococcus lactaris; test: Antimicrobial activity against Ruminococcus lactaris by Wadsworth agar dilution method in presence of beta-lactamase inhibitor Sulbactam; type: functional
[18] = tested on: Clostridium septicum; test: Antimicrobial activity against Clostridium septicum by Wadsworth agar dilution method in presence of beta-lactamase inhibitor Sulbactam; type: functional
[19] = tested on: Flavonifractor plautii; test: Antimicrobial activity against Clostridium orbiscindens by Wadsworth agar dilution method in presence of beta-lactamase inhibitor Sulbactam; type: functional
[20] = tested on: Parabacteroides merdae; test: Antimicrobial activity against Parabacteroides merdae by Wadsworth agar dilution method in presence of beta-lactamase inhibitor Sulbactam; type: functional
[21] = tested on: Clostridium aminobutyricum; test: Antimicrobial activity against Clostridium aminobutyricum by Wadsworth agar dilution method in presence of beta-lactamase inhibitor Sulbactam; type: functional
[22] = tested on: Bifidobacterium dentium; test: Antimicrobial activity against Bifidobacterium dentium by Wadsworth agar dilution method in presence of beta-lactamase inhibitor Sulbactam; type: functional
[23] = tested on: Bifidobacterium pseudolongum; test: Antimicrobial activity against Bifidobacterium pseudolongum by Wadsworth agar dilution method in presence of beta-lactamase inhibitor Sulbactam; type: functional
[24] = tested on: Schaalia meyeri; test: Antimicrobial activity against Actinomyces meyeri by Wadsworth agar dilution method in presence of beta-lactamase inhibitor Sulbactam; type: functional
[25] = tested on: Lactiplantibacillus plantarum; test: Antimicrobial activity against Lactobacillus plantarum by Wadsworth agar dilution method in presence of beta-lactamase inhibitor Sulbactam; type: functional
[26] = tested on: Desulfovibrio sp.; test: Antimicrobial activity against Desulfovibrio sp. by Wadsworth agar dilution method in presence of beta-lactamase inhibitor Sulbactam; type: functional
[27] = tested on: Clostridioides difficile; test: Antimicrobial activity against Clostridium difficile by Wadsworth agar dilution method in presence of beta-lactamase inhibitor Sulbactam; type: functional

SMILES: CC1(C)S[C@@H]2[C@H](NC(=O)[C@H](N)c3ccccc3)C(=O)N2[C@H]1C(=O)O [AMPICILLIN]
- MIC [1]: 0.25 µg/mL
- MIC50 [1]: 0.25 µg/mL
- MIC90 [1]: 2 µg/mL
- MIC [2]: 0.25 µg/mL
- MIC50 [2]: 0.25 µg/mL
- MIC90 [2]: 1 µg/mL
- MIC [3]: 0.25 µg/mL
- MIC50 [3]: 0.25 µg/mL
- MIC90 [3]: 0.5 µg/mL
- MIC50 [4]: 4 µg/mL
- MIC90 [4]: 16 µg/mL
- MIC [5]: 0.25 µg/mL
- MIC50 [5]: 0.25 µg/mL
- MIC90 [5]: 1 µg/mL
- MIC50 [6]: 1 µg/mL
- MIC90 [6]: 4 µg/mL
- MIC50 [7]: 2 µg/mL
- MIC90 [7]: 16 µg/mL
- MIC50 [8]: 1 µg/mL (≈ 2.86 µM)
- MIC90 [8]: 4 µg/mL (≈ 11.4 µM)
- MIC [9]: 0.25 µg/mL
- MIC50 [9]: 0.25 µg/mL
- MIC90 [9]: 2 µg/mL
- MIC [10]: 0.25 µg/mL
- MIC50 [10]: 0.25 µg/mL
- MIC90 [10]: 2 µg/mL
- MIC [11]: 0.25 µg/mL
- MIC50 [11]: 0.25 µg/mL
- MIC90 [11]: 1 µg/mL
- MIC [12]: 1 µg/mL
- MIC50 [12]: 1 µg/mL
- MIC90 [12]: 16 µg/mL
- MIC [13]: 0.25 µg/mL
- MIC50 [13]: 0.25 µg/mL
- MIC90 [13]: 2 µg/mL
- MIC50 [14]: 0.5 µg/mL
- MIC90 [14]: 4 µg/mL
- MIC [15]: 0.25 µg/mL
- MIC50 [15]: 0.25 µg/mL
- MIC90 [15]: 1 µg/mL
- MIC [16]: 0.25 µg/mL
- MIC50 [16]: 0.25 µg/mL
- MIC90 [16]: 2 µg/mL
- MIC [17]: 0.25 µg/mL
- MIC50 [17]: 0.25 µg/mL
- MIC90 [17]: 2 µg/mL
- MIC [18]: 0.25 µg/mL
- MIC50 [18]: 0.25 µg/mL
- MIC90 [18]: 1 µg/mL
- MIC [19]: 2 µg/mL
- MIC50 [19]: 2 µg/mL
- MIC90 [19]: 4 µg/mL
- MIC50 [20]: 16 µg/mL
- MIC90 [20]: 32 µg/mL
- MIC [21]: 0.25 µg/mL
- MIC50 [21]: 0.25 µg/mL
- MIC90 [21]: 1 µg/mL
- MIC [22]: 0.25 µg/mL
- MIC50 [22]: 0.25 µg/mL
- MIC90 [22]: 2 µg/mL
- MIC [23]: 0.25 µg/mL
- MIC50 [23]: 0.25 µg/mL
- MIC90 [23]: 2 µg/mL
- MIC [24]: 0.25 µg/mL
- MIC50 [24]: 0.25 µg/mL
- MIC90 [24]: 2 µg/mL
- MIC [25]: 0.25 µg/mL
- MIC50 [25]: 0.25 µg/mL
- MIC90 [25]: 2 µg/mL
- MIC50 [26]: 4 µg/mL
- MIC90 [26]: 32 µg/mL
- MIC50 [27]: 2 µg/mL
- MIC90 [27]: 4 µg/mL
